Experimental data reported in ChEMBL document CHEMBL1131671, “6-(1-Hydroxyalkyl)penam sulfone derivatives as inhibitors of class A and class C beta-lactamases I” (Bioorg Med Chem Lett, 1999).
pIC50: −log10 of the molar value. Values after ≈ are worked out from the molar mass of the structure shown.

What was measured:
[1] = target: Beta-lactamase (Escherichia coli K-12, UniProt P00811); assay: Inhibitory activity against AmpC (class C) beta-lactamase
[2] = target: Beta-lactamase TEM (Escherichia coli, UniProt P62593); assay: Inhibitory activity against TEM-1 (class A) beta-lactamase
[3] = system: Serratia marcescens; assay: In vitro inhibitory activity against Serratia marcescens; type: functional
[4] = system: Mus musculus; assay: In vivo inhibitory activity against Serratia marcescens in mice; type: functional
[5] = system: Mus musculus; assay: In vivo inhibitory activity against Escherichia coli in mice; type: functional
[6] = system: Escherichia coli; assay: In vitro inhibitory activity against Escherichia coli; type: functional

Sequence of Beta-lactamase TEM (P62593 whole entry): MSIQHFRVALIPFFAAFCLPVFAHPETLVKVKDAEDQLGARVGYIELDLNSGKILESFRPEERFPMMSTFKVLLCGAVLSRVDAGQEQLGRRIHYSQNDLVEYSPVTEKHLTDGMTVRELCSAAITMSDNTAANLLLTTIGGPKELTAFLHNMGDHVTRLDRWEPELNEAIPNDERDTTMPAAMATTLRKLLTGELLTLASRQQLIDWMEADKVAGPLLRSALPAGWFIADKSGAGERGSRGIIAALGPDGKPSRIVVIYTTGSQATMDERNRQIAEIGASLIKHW
Sequence of Beta-lactamase (P00811 whole entry): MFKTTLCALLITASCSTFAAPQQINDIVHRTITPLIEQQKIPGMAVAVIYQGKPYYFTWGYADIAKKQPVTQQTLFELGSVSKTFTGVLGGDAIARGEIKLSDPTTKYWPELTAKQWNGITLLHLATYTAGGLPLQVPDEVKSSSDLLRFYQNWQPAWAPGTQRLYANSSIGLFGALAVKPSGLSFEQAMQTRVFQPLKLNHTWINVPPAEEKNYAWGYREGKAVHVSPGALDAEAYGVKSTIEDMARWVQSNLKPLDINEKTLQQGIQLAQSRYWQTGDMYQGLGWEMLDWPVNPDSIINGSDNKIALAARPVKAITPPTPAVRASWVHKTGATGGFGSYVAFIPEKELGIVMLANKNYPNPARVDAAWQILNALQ

Compound	pIC50 [1]	pIC50 [2]	MIC [3] [µg/mL]	ED50 [4] [mg/kg]	ED50 [5] [mg/kg]	MIC [6] [µg/mL]
CC1(C)S[C@@H]2[C@@H](CO)C(=O)N2[C@H]1C(=O)O	3.66	4.23				
CC1(C)[C@H](C(=O)O)N2C(=O)[C@H](CO)[C@H]2S1(=O)=O	5.24					
CC1(C)S[C@@H]2[C@H](CO)C(=O)N2[C@H]1C(=O)O	4.18	4.51				
CCN1CCN(C(=O)N[C@@H](C(=O)N[C@@H]2C(=O)N3[C@@H]2SC(C)(C)[C@@H]3C(=O)O)c2ccccc2)C(=O)C1=O [PIPERACILLIN]			32 (≈ 61.8 µM)	128	256	> 64
CC1(C)[C@H](C(=O)O)N2C(=O)[C@@H](CO)[C@H]2S1(=O)=O	5.94		8 (≈ 30.4 µM)	30	8	4 (≈ 15.2 µM)
C[C@H](O)[C@H]1C(=O)N2[C@@H](C(=O)O)C(C)(C)S(=O)(=O)[C@H]12	5.80	< 3.48				
C[C@@H](O)[C@H]1C(=O)N2C(C(=O)O)=C(S[C@@H]3CCO[C@@H]3CN)[C@H](C)[C@H]12	6.74	7.46				
C[C@@H](O)[C@H]1C(=O)N2[C@@H](C(=O)O)C(C)(C)S(=O)(=O)[C@H]12	4.99	4.32				
CC(C)[C@H](NC[C@H]1OCC[C@H]1SC1=C(C(=O)O)N2C(=O)[C@H]([C@@H](C)O)C2[C@H]1C)C(=O)O (stereo partly drawn)	7.17	7.04				
C[C@]1(Cn2ccnn2)[C@H](C(=O)[O-])N2C(=O)C[C@H]2S1(=O)=O.[Na+] [TAZOBACTAM SODIUM]			32	144	7.7	2
C[C@H](O)[C@@H]1C(=O)N2[C@@H](C(=O)O)C(C)(C)S(=O)(=O)[C@H]12	6.92	3.69				
